Reference: ChEMBL document CHEMBL5236600, “Identification of a Novel Potent CYP4Z1 Inhibitor Attenuating the Stemness of Breast Cancer Cells through Lead Optimization” (J Med Chem, 2022)

What was measured:
[1] = target: T1, Cytochrome P450 4Z1 (Homo sapiens, UniProt Q86W10); experiment: Inhibition of CYP4Z1 in human HEK293T cells using Luciferin-BE as substrate at 10 uM incubated for 30 mins in presence of NADPH by luminescence based assay relative to control; format: ADME, cell-based; settings: HEK-293T, 0.5 h
T1 sequence (Q86W10 whole entry): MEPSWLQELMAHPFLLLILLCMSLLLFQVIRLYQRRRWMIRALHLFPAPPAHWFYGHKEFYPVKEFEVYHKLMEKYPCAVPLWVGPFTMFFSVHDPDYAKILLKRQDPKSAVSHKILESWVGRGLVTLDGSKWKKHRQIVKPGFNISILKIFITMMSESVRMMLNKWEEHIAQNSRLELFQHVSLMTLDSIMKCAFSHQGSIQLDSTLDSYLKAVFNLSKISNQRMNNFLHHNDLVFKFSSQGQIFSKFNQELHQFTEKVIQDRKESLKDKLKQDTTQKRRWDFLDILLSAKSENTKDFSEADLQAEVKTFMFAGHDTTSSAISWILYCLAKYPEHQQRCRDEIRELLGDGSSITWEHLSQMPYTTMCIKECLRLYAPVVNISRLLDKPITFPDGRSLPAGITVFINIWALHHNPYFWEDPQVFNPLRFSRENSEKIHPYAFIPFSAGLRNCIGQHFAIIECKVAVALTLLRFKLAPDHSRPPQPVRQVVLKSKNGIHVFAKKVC

[2] = target: T1, Cytochrome P450 4Z1; experiment: Inhibition of CYP4Z1 in human HEK293T cells using Luciferin-BE as substrate at 1 uM incubated for 30 mins in presence of NADPH by luminescence based assay relative to control; format: ADME, cell-based; settings: HEK-293T, 0.5 h

## O=C(O)Cc1ccc(N/C=N/O)cc1
[1]
  inhibition at 10 µM: 54.3%
[2]
  inhibition at 1 µM: 36.5%
